Active and inactive are the calls of the source.
Legend:
[1] = cytotoxicity in HPDE-C7 cells, cell-based, fluorescence, HTS (AID 430); type: functional; settings: Homo sapiens
[2] = cytotoxicity in KRAS-transformed pancreatic duct cells, primary screen, cell-based, fluorescence, HTS (AID 431); type: functional; settings: Homo sapiens;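 note: cell line used: HPDE-C7K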
[3] = system: BJ; experiment: cytotoxicity toward BJ-TERT fibroblasts, dose response, cell-based, RAS-independent, luminescence (AID 1933); type: functional; settings: Homo sapiens
[4] = system: BJ; experiment: cells; type: functional, cell-based; settings: Homo sapiens
[5] = cytotoxicity toward DRD oncogenic fibroblasts, dose response, cell-based, non-viral oncogenic, luminescence (AID 1934); type: functional; settings: Homo sapiens
[6] = Vero cell cytotoxicity, dose response, cytotoxicity control for Vif-APOBEC3G degradation inhibitor project, Vero cells (AID 1117358); type: functional; settings: Human immunodeficiency virus 1, Vero
[7] = system: BJ; experiment: cytotoxicity toward BJ-TERT-LT-ST fibroblasts, dose response, cell-based, RAS-independent, luminescence (AID 1935); type: functional; settings: Homo sapiens;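 note: BJ fibroblasts immortalized with TERT plus LT and ST oncogenes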
[8] = biological target: Kallikrein-7 (Homo sapiens, UniProt P49862); experiment: Fluorescence Intensity-based biochemical primary high throughput dose response assay to identify activators of kallikrein-7 (K7) zymogen.
[9] = biological target: T1, Protein Tat (Human immunodeficiency virus type 1 group M subtype B (isolate HXB2)(HIV-1), UniProt P04608); type: functional;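 note: tat binding to TAR RNA read out by fluorescence polarization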
T1 sequence (P04608 whole entry): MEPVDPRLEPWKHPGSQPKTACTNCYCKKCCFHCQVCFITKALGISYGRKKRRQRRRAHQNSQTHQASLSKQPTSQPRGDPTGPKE

[10] = biological target: Nonstructural protein 1 (Influenza A virus, UniProt Q194T2); type: functional, Influenza A virus (A/California/07/2009(H1N1))
[11] = biological target: Prothrombin (Homo sapiens, UniProt P00734); experiment: Thrombin 1536 HTS Dose Response Confirmation. [Related pubchem assays: 1046 (Thrombin 1536 HTS; hits were confirmed in this assay)]; type: functional
[12] = biological target: Paired box protein Pax-8 (Homo sapiens, UniProt Q06710); experiment: inhibitors of PAX8-driven TPO luciferase reporter, dose response, RMG-I cells, cherry-pick (AID 687027); type: functional, cell-based;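 note: luciferase reporter driven by Pax8 target thyroperoxidase promoter measured by SteadyGlo luminescence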
[13] = non-specific cell cytotoxicity, dose response, cytotoxicity control for PAX8 inhibitor project, plate reader, dry powder samples (AID 743021); type: functional, cell-based
[14] = NIH:OVCAR-3 ovarian cancer cell cytotoxicity, dose response, PAX8 inhibitor project, plate reader, dry powder samples (AID 743044); type: functional, cell-based
[15] = biological target: T2, Mannose-6-phosphate isomerase (Homo sapiens, UniProt P34949); experiment: human PMI inhibitors, high substrate, primary screen, biochemical, fluorescence intensity, high mannose 6-phosphate (AID 1220)
T2 sequence (P34949 whole entry): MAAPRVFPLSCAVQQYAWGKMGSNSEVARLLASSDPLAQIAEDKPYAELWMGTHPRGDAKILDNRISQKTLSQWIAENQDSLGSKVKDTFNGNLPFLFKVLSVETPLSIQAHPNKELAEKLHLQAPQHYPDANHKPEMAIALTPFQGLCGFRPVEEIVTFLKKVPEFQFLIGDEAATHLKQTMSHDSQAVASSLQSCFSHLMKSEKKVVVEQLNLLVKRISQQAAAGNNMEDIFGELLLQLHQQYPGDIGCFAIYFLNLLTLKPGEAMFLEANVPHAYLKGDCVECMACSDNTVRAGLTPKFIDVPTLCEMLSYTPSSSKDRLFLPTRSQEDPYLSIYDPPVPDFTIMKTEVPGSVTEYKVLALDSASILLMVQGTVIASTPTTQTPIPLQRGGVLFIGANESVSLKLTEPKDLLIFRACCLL

[16] = Luminescence-based cell-based high throughput dose response assay to identify activators of the DAF-12 from the parasite S. stercoralis (ssDAF-12).; type: functional
[17] = biological target: T3, Oxysterols receptor LXR-beta (Homo sapiens, UniProt P55055); experiment: LXR agonists, Gal4 luciferase reporter, dose response, counter-screen for ssDAF-12 agonist project, cell-based, luminescence, HEK293, S. stercoralis campaign (AID 720737); type: functional; settings: read-out: IC50 (the source's name)
T3 sequence (P55055 whole entry): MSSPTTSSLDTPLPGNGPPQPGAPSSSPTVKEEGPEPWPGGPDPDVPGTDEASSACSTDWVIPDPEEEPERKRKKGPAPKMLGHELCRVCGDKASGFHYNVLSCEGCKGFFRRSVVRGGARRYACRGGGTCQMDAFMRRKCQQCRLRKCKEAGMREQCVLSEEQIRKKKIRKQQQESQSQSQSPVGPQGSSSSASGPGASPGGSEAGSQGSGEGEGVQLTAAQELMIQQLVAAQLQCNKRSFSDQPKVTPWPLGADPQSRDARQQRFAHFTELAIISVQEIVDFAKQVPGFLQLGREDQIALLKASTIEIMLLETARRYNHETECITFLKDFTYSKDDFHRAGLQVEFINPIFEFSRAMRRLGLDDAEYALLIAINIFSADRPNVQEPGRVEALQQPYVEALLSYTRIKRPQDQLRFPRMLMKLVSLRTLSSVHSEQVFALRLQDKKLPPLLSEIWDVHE

[18] = P. falciparum Dd2 growth inhibitors, dose response, SYBR Green, cherry-picked samples (AID 1159567); type: functional, cell-based
[19] = P. falciparum 3D7-ScDHODH growth inhibitors, dose response, SYBR Green, dry powder samples (AID 1159570); type: functional, cell-based;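 note: parasite growth measured after 72 hours of compound exposure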
[20] = P. falciparum Dd2 growth inhibitors, dose response, SYBR Green, dry powder samples (AID 1159566); type: functional, cell-based;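 note: potency for growth inhibition with lower SYBR green DNA signal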
[21] = P. falciparum ATP4 D1247Y mutant growth inhibitors, dose response, NITD609-resistant line, SYBR Green, dry powder (AID 1159571); type: functional, cell-based;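 note: parasites synchronized at ring stage by sorbitol before testing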

Kallikrein-7, sequence (P49862 whole entry): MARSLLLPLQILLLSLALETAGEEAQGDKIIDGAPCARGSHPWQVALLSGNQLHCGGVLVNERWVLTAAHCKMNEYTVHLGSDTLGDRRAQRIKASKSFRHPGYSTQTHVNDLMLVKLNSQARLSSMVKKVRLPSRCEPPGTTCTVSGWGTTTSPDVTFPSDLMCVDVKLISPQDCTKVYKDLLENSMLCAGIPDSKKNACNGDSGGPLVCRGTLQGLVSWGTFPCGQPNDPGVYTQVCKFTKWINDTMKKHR
Paired box protein Pax-8, sequence (Q06710 whole entry): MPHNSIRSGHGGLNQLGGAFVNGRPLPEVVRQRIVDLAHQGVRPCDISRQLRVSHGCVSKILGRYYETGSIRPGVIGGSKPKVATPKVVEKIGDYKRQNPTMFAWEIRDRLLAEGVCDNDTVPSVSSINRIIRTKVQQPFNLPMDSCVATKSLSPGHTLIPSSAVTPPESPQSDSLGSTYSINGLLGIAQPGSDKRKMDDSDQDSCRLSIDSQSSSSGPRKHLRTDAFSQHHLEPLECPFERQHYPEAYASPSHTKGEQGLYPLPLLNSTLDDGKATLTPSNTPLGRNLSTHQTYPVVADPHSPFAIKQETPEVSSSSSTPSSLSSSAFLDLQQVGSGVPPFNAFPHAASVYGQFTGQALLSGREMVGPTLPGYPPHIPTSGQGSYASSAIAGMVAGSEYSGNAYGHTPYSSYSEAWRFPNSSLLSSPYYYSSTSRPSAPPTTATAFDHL
Nonstructural protein 1, sequence (Q194T2 whole entry): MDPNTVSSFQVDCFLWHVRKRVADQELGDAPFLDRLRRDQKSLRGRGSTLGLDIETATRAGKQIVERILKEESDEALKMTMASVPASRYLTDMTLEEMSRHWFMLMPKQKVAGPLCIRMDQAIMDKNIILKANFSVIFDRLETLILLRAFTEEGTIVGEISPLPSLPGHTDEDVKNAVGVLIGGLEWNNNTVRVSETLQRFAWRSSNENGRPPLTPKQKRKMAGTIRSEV

O=C(CCCN1C(=O)c2cccnc2C1=O)N1CC(=O)N(CCc2ccccc2)C(=O)C1
EC50 [1]: > 20 µM (not active) | EC50 [2]: > 20 µM (not active)

O=C(/C=C/c1cccs1)Nc1ccc(Br)cn1
EC50 [3]: 417 nM (inconclusive) | EC50 [4]: 25.5 µM (inconclusive) | EC50 [5]: 373 nM (inconclusive) | CC50 [6]: > 40 µM (active) | EC50 [7]: 10.2 µM (inconclusive)

COc1c(N2CCN(C(=S)Nc3ccccc3F)C(C)C2)c(F)cc2c(=O)c(C(=O)O)cn(C3CC3)c12 (stereo not given)
EC50 [8]: > 69.5 µM (inactive)

O=C1CC(Nc2ccc(N3CCOCC3)cc2)C(=O)N1c1cccc(C(F)(F)F)c1 (stereo not given)
IC50 [9]: 29.5 µM (inconclusive) | IC50 [10]: > 100 µM (active)

O=C(O)CCc1nn2c3ccccc3nc2n(CCN2CCCCC2)c1=O
EC50 [8]: 34.8 µM (inactive)

CC(=O)c1ccc(S(=O)(=O)Nc2ccc(-c3cn4c(n3)SCC4)cc2)cc1
IC50 [11]: > 50 µM (not active)

CCC(=O)Nc1cccc(C(=O)OCc2cccc([N+](=O)[O-])c2)c1
IC50 [11]: > 50 µM (not active)

COC(=O)c1cc(-c2ccc(OC)cc2)nc2nc(SC)[nH]c(=O)c12
EC50 [8]: 48 µM (inactive)

C[C@@H]1CN([C@H](C)CO)C(=O)c2cc(NS(=O)(=O)c3ccc(Cl)cc3)ccc2O[C@@H](C)CCCCO[C@@H]1CN(C)Cc1ccccc1
AC50 [12]: 4.7 µM (active) | AC50 [13]: 43 µM (active)

CC(C)CC#Cc1ccc2c(c1)O[C@H](CN(C)Cc1ccc(C(=O)O)cc1)[C@@H](C)CN([C@H](C)CO)S2(=O)=O
AC50 [14]: 57.2 µM (active) | AC50 [12]: 19.3 µM (active) | AC50 [13]: 48 µM (active)

Oc1ccc2ccccc2c1/C=N\C1CCCCC1
IC50 [15]: 23.3 µM (active)

C(=N\Nc1nc2ccccc2s1)/c1ccc2c(c1)OCO2
IC50 [16]: > 67.5 µM (inactive) | EC50 [17]: > 67.5 µM (inactive)

COc1ccc2c3c(n(C)c2c1)[C@@H](CO)N(C(=O)Nc1ccc(F)cc1)CC31CCN(Cc2ccccn2)CC1
AC50 [18]: 3.18 µM (active) | AC50 [19]: 1.69 µM (active) | AC50 [20]: 2.05 µM (active) | AC50 [21]: 2.11 µM (active)

COc1ccc(C#Cc2ccc3c(c2)[C@H]2[C@H](CCN2C(=O)C2CCCC2)[C@@H](CO)N3)cc1
AC50 [18]: 2.04 µM (active) | AC50 [19]: 1.99 µM (active) | AC50 [20]: 1.67 µM (active) | AC50 [21]: 2.2 µM (active)
